In patent US10072161B2, “Polyamide nanoparticles and uses thereof” (Bar-Ilan University, priority 2014, dated 2018):

Experiments:
E. coli [1] = assay: Bacterial killing kinetics in the presence of antioxidants; assay type: cell-based, Escherichia coli; conditions: 10 mM antioxidant, 1 h pre-incubation
Description: (§1) Cultures of E. coli and S. aureus bacteria grown overnight were diluted in fresh twofold concentrated LB medium to obtain stock solutions with a final working concentration of 10^5 CFU/ml. […] Bacteria supplemented with distilled water or the various antioxidants served as negative controls. At various time points, 100 μl samples were taken from each tube and transferred into the first row wells of a 96-well plate containing 20 μl of 0.1 N thiosulfate. The latter was added to quench the remaining chlorine on the P(MAA-MBAA)-Cl NPs and NaOCl, thus terminating the sterilization process. Serial dilutions were carried out and the cells spotted onto LB agar plates, which were incubated at 37° C. for 20 h. Cell growth was monitored and determined by a viable cell count.

S. aureus [2] = assay: as above; assay type: cell-based, Staphylococcus aureus; conditions: 10 mM antioxidant, 1 h pre-incubation
Description: as §1

[3] = ESR spin trapping (DMPO) of ROS; conditions: 10 mM antioxidant
Description: ROS production was detected using the ESR spin trapping technique coupled with a spin trap 5,5-Dimethyl-pyrroline N-oxide (DMPO, Sigma, St. Louis, Mo.). Typically, the aqueous suspensions of NPs were added to DMPO (0.01 M), in the presence of equivalent volumes of either twofold concentrated LB medium, or each of its components (Tryptone, yeast extract, NaCl) or water. […] The solution was drawn into a 0.8 mm ID capillary quartz tube sealed at both ends with a plastic Critoseal (Thermo Fisher Scientific Inc), which was placed into a quartz tube that in turn was placed into the EPR rectangular cavity (ER 4122SHQ). The measurements were taken using a X-band Elexsys E500 EPR spectrometer (Bruker, Karlsruhe, Germany) using the following parameters: microwave power, 20 mW; scan width, 100 G; resolution, 1024; Gain, 60; sweep time, 60 s; # scans, 2; modulation frequency, 100 kHz; modulation amplitude, 1 G. In order to compare the radical intensity, the double integration (DI) of the spin adduct signal was calculated, using the Xepr 2.6b.58 acquisition version.

S. aureus [4] = assay: Consecutive bacterial loading cycles (hourly, 8 cycles); assay type: cell-based, Staphylococcus aureus
Description: (§2) The cell density of E. coli and S. aureus grown overnight was normalized to 2*10^5 cells per milliliter in a twofold concentrated LB medium; then the bacteria were treated for 1 h at 37° C. under agitation (250 rpm) with equivalent volumes of either NaOCl or P(MAA-MBAA)-Cl NPs. Bacteria shaken with water served as a negative control. After 1 h of incubation, aliquots were collected and diluted serially tenfold before spotting onto LB agar plates. After an overnight incubation at 37° C. the colony forming units (CFU) were counted and used to determine cell survival. Immediately after each aliquot was removed, newly prepared bacteria were added for another hour to each of the tubes to achieve a final concentration of 10^5 CFU/ml.

[5] = Kinetics of oxidative chlorine release in LB medium (NaI quenching, 292/350 nm); assay type: physicochemical; conditions: for % chlorinated: 1 day in LB
Description: (§3) Equal volumes of NaOCl or P(MAA-MBAA)-Cl NPs were incubated with equivalent volumes of twofold concentrated LB medium. The precise concentration of the oxidative chlorine found on the two reagents was determined at different time intervals via quenching with sodium iodide followed by spectrophotometer (Amersham Bioschiences) measurements at wavelengths of 292 nm and 350 nm, as previously described.
as §3, with “nm.” for “nm, as previously described.”

E. coli [6] = assay: Consecutive bacterial loading cycles (hourly, 8 cycles); assay type: cell-based, Escherichia coli
Description: as §2

E. coli [7] = assay: Bacterial killing / killing kinetics, viable cell count (CFU/mL); assay type: cell-based, Escherichia coli
Description: (§4) In exemplary procedures, Escherichia coli (E. coli) C600, Staphylococcus aureus (S. aureus) FRF1169, and multi-drug resistant strains E. coli 5327752, Klebsiella pneumoniae 5363271, and Providencia stuartii 5327311 were grown overnight at 37° C. under agitation (250 rpm) in Luria Bertani (LB, Difco) growth medium.
(§5) In exemplary procedures, overnight cultures of E. coli and S. aureus bacteria were each diluted in a fresh LB medium to obtain stock solutions with a working concentration of 10^5 CFU per mL. Next, E. coli and S. aureus bacteria were grown, […] with equivalent volumes of either NaOCl, P(MAA-MBAA) or P(MAA-MBAA)-Cl nanoparticles (0.2%, 0.75%, and 1% w/v) under continuous agitation (250 rpm). At various time points, 100 μL samples were taken from each tube and transferred into the wells of the first row in a 96-well plate that contained 20 μL of 0.1 N sodium thiosulfate. The latter was added to quench the remaining Cl on the P(MAA-MBAA)-Cl nanoparticles, thus halting the reaction. Serial dilutions were carried out, and the cells were spotted onto LB agar plates, followed by incubation at 37° C. for 20 hours. Cell growth was monitored and determined by viable cell count and expressed as CFU/mL.
(§6) Cultures of E. coli and S. aureus bacteria grown overnight were diluted in fresh twofold concentrated LB medium to obtain stock solutions with a final working concentration of 10^5 CFU/ml. Then, E. coli and S. aureus bacteria were grown with either P(MAA-MBAA)-Cl NPs or NaOCl under continuous agitation (250 rpm). Bacteria grown with distilled water or P(MAA-MBAA) NPs served as negative controls. At various time points, 100 μl samples were taken from each tube and transferred into the first row wells of a 96-well plate containing 20 μl of 0.1 N thiosulfate. The latter was added to quench the remaining chlorine on the P(MAA-MBAA)-Cl NPs and NaOCl, thus terminating the sterilization process. […] Cell growth was monitored and determined by a viable cell count.

S. aureus [8] = assay: Stability in organic rich media (LB pre-incubation, then bacterial loading); assay type: cell-based, Staphylococcus aureus
Description: (§7) 1 ml of either DDW, NaOCl or P(MAA-MBAA)-Cl NPs was mixed with 1 ml of twofold concentrated LB medium and incubated for 3 h, 5 h or 24 h. Then, E. coli or S. aureus were added to each of the solutions, reaching a final concentration of 10^5 CFU/ml and the mixture agitated for either 3 h or 24 h. At the indicated time points, samples were taken for cell viability determination and the solutions were reloaded with freshly prepared bacteria. The experiment was continued until the reagents were no longer capable of evincing toxic effects on the tested bacteria.

[9] = tested on: Staphylococcus aureus (S. aureus) FRF1169; assay: Minimum inhibitory concentration (MIC) assay in LB, 96-well, OD595; assay type: cell-based; conditions: 10^5 CFU/mL
Description: as §4
(§8) In exemplary procedures, the antimicrobial activity of the P(MAA-MBAA)-Cl nanoparticles was evaluated by determining the minimum inhibitory concentration (MIC) values for both E. coli and S. aureus. The MIC was defined as the lowest Cl concentration bound to the nanoparticles, or the NaOCl, at which no bacterial growth was visible following incubation with the respective bacteria. The stock solution of the P(MAA-MBAA)-Cl nanoparticles and NaOCl were each diluted in two-fold serial dilutions in a 96-well plate (Griener Bio-one) ranging from bound Cl concentrations of 10 to 0.08 mM (approximately corresponding to 0.8% P(MAA-MBAA)-Cl, w/v) in LB medium in a 96-well plate (Greiner Bio-one). Each well contained 10^5 colony-forming units (CFU)/mL of either E. coli or S. aureus, and bacteria were either treated with P(MAA-MBAA) nanoparticles or left untreated to serve as negative controls. The bacterial growth was monitored via absorbance measurements at OD595 utilizing a microplate reader (Synergy 2, BioTek instruments). All experiments were conducted in triplicate.

[10] = tested on: Escherichia coli (E. coli) C600; assay: as above; assay type: cell-based; conditions: 10^5 CFU/mL
Description: as §4, §8

E. coli [11] = assay: Stability in organic rich media (LB pre-incubation, then bacterial loading); assay type: cell-based, Escherichia coli
Description: as §7

S. aureus [12] = assay: Bacterial killing / killing kinetics, viable cell count (CFU/mL); assay type: cell-based, Staphylococcus aureus
Description: as §4, §5, §6

[13] = 10^5 CFU/ml in LB, NPs versus NaOCl
[14] = pre-incubated for 1 week with LB

## O=C1O[C@H]([C@@H](O)CO)C(O)=C1O [AA, Ascorbic acid]
E. coli [1]
  effect of antioxidant pre-incubation on killing by the chlorinated NPs: abolished the killing properties of the NPs
S. aureus [2]
  effect of antioxidant pre-incubation on killing by the chlorinated NPs: abolished the killing properties of the NPs

## CC(=O)N[C@@H](CS)C(=O)O [NAC, N-acetyl cysteine]
E. coli [1]
  effect of antioxidant pre-incubation on killing by the chlorinated NPs: abolished the killing properties of the NPs
S. aureus [2]
  effect of antioxidant pre-incubation on killing by the chlorinated NPs: abolished the killing properties of the NPs
[3]
  effect on formation of DMPO-OH by P(MAA-MBAA)-Cl NPs with LB: completely abrogated

## OCl [NaOCl, sodium hypochlorite]
S. aureus [4]
  bacterial viability after overnight incubation following the eighth loading cycle: able to overcome the growth inhibitory affect
  loading cycle from which no longer able to promote bacterial killing: 2 cycle
[5]; 10 minutes of incubation in LB
  NaOCl molecules sequestered by organic substances: ~50%
[5]; measured at 292 nm
  % chlorinated: 0.9%
[5]; measured at 350 nm
  % chlorinated: 0.5%
E. coli [6]
  bacterial viability after overnight incubation following the eighth loading cycle: no viable E. coli bacteria
  loading cycle from which no longer able to promote bacterial killing: 4 cycle
E. coli [7]; 8 mM oxidative chlorine
  bacterial killing: Total kill
E. coli [7]; 11 mM oxidative chlorine
  bacterial killing: Total kill
E. coli [7]; [13]
  time to eradication of bacteria: ≤ 2 min
S. aureus [8]; 3 h pre-incubation
  effect of pre-incubation with LB on bactericidal activity: did compromise its bactericidal activity
S. aureus [8]; 3 h pre-incubation with LB
  time to complete killing: 24 h
S. aureus [8]; 5 h pre-incubation
  effect of pre-incubation with LB on bactericidal activity: growth arrest
S. aureus [8]; 24 h pre-incubation
  effect of pre-incubation with LB on bactericidal activity: destroyed its antibacterial activity
S. aureus [8]; [14]
  concentration required to kill bacteria: 0.36 M
  killing at 0.18 M: ineffective
[9]
  minimum inhibitory concentration (MIC): 5.6 mM oxidative Cl
[10]
  minimum inhibitory concentration (MIC): 5.6 mM oxidative Cl
E. coli [11]; 3 h pre-incubation
  effect of pre-incubation with LB on bactericidal activity: had no impact on their bactericidal activity
E. coli [11]; 5 h pre-incubation
  effect of pre-incubation with LB on bactericidal activity: growth inhibition
E. coli [11]; 5 h pre-incubation with LB
  time to complete killing: 24 h
E. coli [11]; 5 h pre-incubation with LB, 3 h time point
  reduction of bacteria viability: ~4 logs
E. coli [11]; 24 h pre-incubation
  effect of pre-incubation with LB on bactericidal activity: destroyed its antibacterial activity
E. coli [11]; [14]
  concentration required to kill bacteria: 0.36 M
  killing at 0.18 M: ineffective
S. aureus [12]; 8 mM oxidative chlorine
  bacterial killing: Total kill
S. aureus [12]; 11 mM oxidative chlorine
  bacterial killing: Total kill
S. aureus [12]; [13]
  time to eradication of bacteria: ≤ 2 min
